From US11306095B2 (EAST CHINA UNIVERSITY OF SCIENCE AND TECHNOLOGY, priority 2015, dated 2022)
≈ marks a conversion by molar mass, not a printed value.

What was measured:
[1] = Determination of solubility in water (PBS 20 mM, pH 6.8); format: physicochemical; conditions: PBS buffer, aqueous buffer, thermodynamic from solid; pH 6.8, 20 mM PBS; read-out: Solubility (pH 6.8, g/mL)
Protocol: The suspension was filtered through a 0.22 μm PVDF filter, and then diluted to an appropriate concentration with methanol (v=50%) and PBS (v=50%), and the absorbance was measured by a UV spectrophotometer. About 3 mg of compound was accurately weighed, and methanol was added for preparing a stock solution of 1 mg/mL. The above stock solution was taken and prepared into a solution at concentrations of 0.05, 0.04, 0.03, 0.02 and 0.01 mg/mL, respectively, PBS solution (v=50%) was added and the absorbance value was measured. Concentration c (mg/mL) as horizontal ordinate vs absorbance A as longitudinal coordinate was plotted, and a line was fitted for obtaining a standard curve (correlation coefficient greater than 0.998). The solubility of a compound in water was calculated from the standard curve.

[2] = system: A431 cells (EGFR wild type); assay: Inhibitory activity on cell proliferation, A431; format: cell-based; conditions: Homo sapiens, A-431; A431, 72 hours; read-out: Inhibitory activity on proliferation of cells (IC50, μM) A431
Protocol: (§1) Cell proliferation activity was assessed by MTS assay. Cells were exposed to processing conditions for 72 hours and the number of cells used in each experiment for each cell line was adjusted based on absorbance values (absorbance values at 490 nm, 1.3-2.2). Six concentration gradients (0.1 nM-10 μM) were set for the compounds to be tested, wherein at least 6 sets of parallel controls for each concentration were used.
(§2) H1975, A431 cells were cultured in corresponding media, and cells were passaged at least twice after resuscitation and then used for experiments. Cells at Log phase were trypsinized and resuspended in culture medium. H1975 (1000 cells per well), A431 (2000 cells per well) were seeded in 96-well plates in a volume of 100 μL; and 6 sets of parallel controls and 7 columns were set. The plate was placed in a 37° C. 5% CO2 incubator overnight. Compounds were dissolved in DMSO to a concentration of […], and then the concentration was gradually diluted to 10 μM, 1 μM, 0.1 μM, 0.01 μM, 0.001 μM, 0.0001 μM per liter, respectively. 2 μL of the compound solution was added to 998 μL of medium, and the mixture was thoroughly mixed. 100 μL of the mixture was added to a 96-well plate. […] After culturing for 68 hours, 20 μL of MTT (5 mg/mL) was added. After 4 hours, the supernatant was discarded and 150 μL of DMSO was added. After shaking for 10 minutes, the plate was read with Synergy HT (Bio TeK) (OD490). Data were calculated using GraphPad Prism version 4.0 and IC50 values were obtained using a non-linear regression model of dose response curve.

[3] = system: H1975 cells (EGFR L858R/T790M); assay: Inhibitory activity on cell proliferation, H1975; format: cell-based; conditions: Homo sapiens, NCI-H1975; H1975, 72 hours; read-out: Inhibitory activity on proliferation of cells (IC50, μM) H1975
Protocol: as §1, §2

[4] = molecular target: T1, EGFR-L858R/T790M (Homo sapiens, UniProt P00533, L858R/T790M); assay: Kinase activity test (FRET), EGFR T790M/L858R; format: biochemical; conditions: EGFR T790M/L858R; read-out: Inhibitory activity of EGFR on kinase (IC50, nM) T790M/L858R
T1 construct: purchased Invitrogen PV4879
Protocol: (§3) EGFR-TK catalyses transfer of one phosphate group of adenosine triphosphate (ATP) to polypeptide substrate, poly(Glu, Tyr)4:1, which is labeled with two fluorescent groups coumarin and fluorescein.
(§4) 2.5 μL of Test Compounds, 5 μL Kinase/Peptide Substrate Mixture, 2.5 μL ATP Solution were added into a 384-well plate, and the 10 μL of reaction system was shaken for 30 s and incubated at room temperature for 1 h. 5 μL of Development Solution was added and the 15 μL of reaction system was shaken for 30 s, and incubated at room temperature for 1 h. […] The inhibitory rates of the compounds at 7 concentration gradients were determined and the IC50 value for each compound was calculated by Origin 8.0 fitting curve.
(§5) 10 concentration gradients from 5.1×10^−11 mol/L to 1.0×10^−6 mol/L were set for all compounds to be tested.
(§6) Compounds were diluted in DMSO for three times from 5.1×10^−9 M to 1×10^−4 M. 4 μL of the compound was dissolved in 96 μL of water to obtain a 4× compound solution. […] The 10 μL kinase reaction consisted of 2.5 μL compound solution, 5 μL kinase/peptide mix, 2.5 μL ATP solution. […] 5 μL of phosphorylated peptide solution, instead of the kinase/peptide mixture, was used as a 100% phosphorylation control. […] The plates were thoroughly mixed and incubated at room temperature for 1.5 hours. 5 μL of Development Solution was added into each well and then incubated for another 1 hour at room temperature, unphosphorylated peptides were cleaved during this period. Finally, 5 μL Stop Reagent was added to quench the reaction. The plates were measured with EnVision Multilabel Reader (Perkin Elmer). The experimental data were calculated using GraphPad Prism version 4.0. Each experiment was repeated more than 3 times.

[5] = molecular target: T2, Wild type EGFR (Homo sapiens, UniProt P00533); assay: Kinase activity test (FRET), wild type EGFR; format: biochemical; conditions: wild type EGFR; read-out: Inhibitory activity of EGFR on kinase (IC50, nM) WT
T2 construct: purchased Invitrogen PV3872
Protocol: as §3, §4, §5, §6

T2 sequence (P00533 25-1210): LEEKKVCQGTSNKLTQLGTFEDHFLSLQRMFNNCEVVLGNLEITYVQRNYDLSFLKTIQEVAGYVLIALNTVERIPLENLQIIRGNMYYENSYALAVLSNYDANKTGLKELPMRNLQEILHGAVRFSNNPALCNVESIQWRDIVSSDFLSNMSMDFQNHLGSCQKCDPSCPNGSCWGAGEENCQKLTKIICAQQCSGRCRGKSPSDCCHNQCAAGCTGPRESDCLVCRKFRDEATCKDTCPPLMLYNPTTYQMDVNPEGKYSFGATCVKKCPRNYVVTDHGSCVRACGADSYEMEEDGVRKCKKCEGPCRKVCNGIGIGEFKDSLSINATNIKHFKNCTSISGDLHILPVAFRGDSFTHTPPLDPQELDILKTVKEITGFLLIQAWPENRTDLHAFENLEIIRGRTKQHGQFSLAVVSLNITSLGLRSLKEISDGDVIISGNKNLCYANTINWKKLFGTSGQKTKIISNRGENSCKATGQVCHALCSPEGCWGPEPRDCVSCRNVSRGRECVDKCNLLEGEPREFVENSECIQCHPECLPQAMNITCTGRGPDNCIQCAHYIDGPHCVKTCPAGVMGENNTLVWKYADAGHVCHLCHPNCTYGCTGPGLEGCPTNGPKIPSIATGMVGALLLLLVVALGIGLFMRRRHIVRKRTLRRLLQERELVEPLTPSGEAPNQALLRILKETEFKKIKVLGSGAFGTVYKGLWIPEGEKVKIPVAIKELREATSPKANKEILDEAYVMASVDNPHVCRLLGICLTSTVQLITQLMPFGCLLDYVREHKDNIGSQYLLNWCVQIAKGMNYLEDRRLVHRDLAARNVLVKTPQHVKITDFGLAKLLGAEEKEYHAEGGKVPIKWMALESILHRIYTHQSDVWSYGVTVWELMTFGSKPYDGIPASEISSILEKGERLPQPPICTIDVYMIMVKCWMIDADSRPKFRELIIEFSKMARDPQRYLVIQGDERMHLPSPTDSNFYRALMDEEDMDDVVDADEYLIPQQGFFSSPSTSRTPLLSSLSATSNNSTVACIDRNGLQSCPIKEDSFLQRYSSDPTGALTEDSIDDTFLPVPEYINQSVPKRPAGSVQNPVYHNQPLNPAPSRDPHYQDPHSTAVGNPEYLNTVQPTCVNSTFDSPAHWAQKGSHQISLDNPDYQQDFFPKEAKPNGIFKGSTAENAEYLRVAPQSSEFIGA
T1 sequence (P00533 25-1210 T790M/L858R): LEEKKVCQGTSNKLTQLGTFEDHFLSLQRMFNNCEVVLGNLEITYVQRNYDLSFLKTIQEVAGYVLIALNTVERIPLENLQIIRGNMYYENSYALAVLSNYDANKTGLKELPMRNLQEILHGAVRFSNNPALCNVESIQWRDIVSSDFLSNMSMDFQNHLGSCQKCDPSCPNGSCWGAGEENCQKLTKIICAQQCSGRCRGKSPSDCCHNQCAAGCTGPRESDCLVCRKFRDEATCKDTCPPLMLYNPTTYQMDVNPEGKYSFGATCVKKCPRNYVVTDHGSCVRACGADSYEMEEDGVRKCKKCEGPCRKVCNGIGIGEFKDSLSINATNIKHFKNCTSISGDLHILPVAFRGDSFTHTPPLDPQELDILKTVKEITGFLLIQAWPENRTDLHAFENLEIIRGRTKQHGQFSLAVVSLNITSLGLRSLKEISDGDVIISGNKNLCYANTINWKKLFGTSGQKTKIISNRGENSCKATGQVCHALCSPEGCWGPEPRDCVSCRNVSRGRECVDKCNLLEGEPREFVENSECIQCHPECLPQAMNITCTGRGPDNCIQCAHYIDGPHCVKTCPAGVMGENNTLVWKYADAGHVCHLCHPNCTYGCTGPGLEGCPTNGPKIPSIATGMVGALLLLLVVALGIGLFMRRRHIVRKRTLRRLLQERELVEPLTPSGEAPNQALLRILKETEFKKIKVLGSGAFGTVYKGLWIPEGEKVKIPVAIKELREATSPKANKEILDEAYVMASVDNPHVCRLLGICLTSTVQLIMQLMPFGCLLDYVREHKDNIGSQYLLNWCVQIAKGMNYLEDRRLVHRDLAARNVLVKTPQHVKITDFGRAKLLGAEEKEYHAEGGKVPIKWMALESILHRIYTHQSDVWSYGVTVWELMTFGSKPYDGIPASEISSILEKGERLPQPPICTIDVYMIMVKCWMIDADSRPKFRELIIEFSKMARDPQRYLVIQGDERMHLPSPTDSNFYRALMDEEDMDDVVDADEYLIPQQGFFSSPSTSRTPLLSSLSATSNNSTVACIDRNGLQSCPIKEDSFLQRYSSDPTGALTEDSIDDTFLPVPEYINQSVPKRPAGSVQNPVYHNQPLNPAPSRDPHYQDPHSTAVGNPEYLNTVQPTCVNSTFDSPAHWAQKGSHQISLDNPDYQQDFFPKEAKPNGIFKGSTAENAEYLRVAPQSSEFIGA

SMILES	solubility [1]	IC50 [2]	IC50 [3]	IC50 [4]	IC50 [5]
C=CC(=O)Nc1cccc(-n2c(=O)cnc3cnc(Nc4ccc(N5CCN(CCO)CC5)cc4OC)nc32)c1 [Compound 11, N-(3-(2-((4-(4-(2-hydroxyethyl)-1-piperazinyl)-2-methoxyphenyl)amino)-7-oxo-8 (7H)-pteridinyl)phenyl)acrylamide]	48.6 µg/mL (≈ 89.6 µM)	8.09 µM	0.2 µM	7.3 nM	2.2 nM
C=CC(=O)Nc1cccc(-n2c(=O)cnc3cnc(Nc4ccc(N5CCC(N(C)C)CC5)cc4OC)nc32)c1 [Compound 12]	369 µg/mL (≈ 683 µM)	2.52 µM	0.006 µM	6.2 nM	3.5 nM
C=CC(=O)Nc1cccc(-n2c(=O)c(C(C)C)nc3cnc(Nc4ccc(N5CCN(C)CC5)cc4)nc32)c1 [Compound 13, N-(3-(6-isopropyl-2-((4-(4-methyl-1-piperazinyl)phenyl)amino)-7-oxo-8(7H)-pteridinyl)phenyl)acrylamide]	8.9 µg/mL (≈ 17 µM)	1.48 µM	0.046 µM	5.7 nM	4.2 nM
C=CC(=O)N1CCC[C@@H](Cn2c(=O)cnc3cnc(Nc4ccc(N5CCN(C)CC5)cc4OC)nc32)C1 [Compound 16, (R)-8-((1-acryloyl-3-piperidinyl)methyl)-2-((2-methoxy-4-(4-methyl-1-piperazinyl)phenyl)amino)-7(8H)-pteridinone]	956 µg/mL (≈ 1840 µM)	> 10 µM	> 10 µM	> 10000 nM	4700 nM
C=CC(=O)N1CCC[C@H](Cn2c(=O)cnc3cnc(Nc4ccc(N5CCN(C)CC5)cc4OC)nc32)C1 [Compound 17]	957 µg/mL (≈ 1850 µM)	> 10 µM	1.42 µM	191 nM	2190 nM
C=CC(=O)Nc1cccc(-n2c(=O)cnc3cnc(Nc4ccc(N(C)CCN(C)C)cc4OC)nc32)c1 [Compound 18, N-(3-(2-((4-((2-(dimethylamino)ethyl)(methyl)amino)-2-methoxyphenyl)amino)-7-oxo-8(7H)-pteridinyl)phenyl)acrylamide]	208 µg/mL (≈ 405 µM)	1.66 µM	0.06 µM	1 nM	47 nM
C=CC(=O)Nc1cccc(-n2c(=O)c(C(C)C)nc3cnc(Nc4ccc(N(C)CCN(C)C)cc4OC)nc32)c1 [Compound 19, N-(3-(2-((4-((2-(dimethylamino)ethyl)(methyl)amino)-2-methoxyphenyl)amino)-6-isopropyl-7-oxo-8(71-1)-pteridinyl)phenyl)acrylamide]	90.7 µg/mL (≈ 163 µM)	3.41 µM	1.16 µM	14.1 nM	174 nM
C=CC(=O)Nc1cccc(-n2c(=O)c(-c3ccccc3)nc3cnc(Nc4ccc(N(C)CCN(C)C)cc4OC)nc32)c1 [Compound 20, N-(3-(2-((4-((2-(dimethylamino)ethyl)(methyl)amino)-2-methoxyphenyl)amino)-7-oxo-6-phenyl-8(7H)-pteridinyl)phenyl)acrylamide]	7.4 µg/mL (≈ 12.5 µM)	6 µM	0.04 µM	1.3 nM	15 nM
C=CC(=O)N1CCC[C@@H](Cn2c(=O)c(C(C)C)nc3cnc(Nc4ccc(N5CCN(C)CC5)cc4OC)nc32)C1 [Compound 21, (R)-8-((1-acryloyl-3-piperidinyl)methyl)-6-isopropyl-2-((2-methoxy-4-(4-methyl-1-piperazinyl)phenyl)amino)-7(8H)-pteridinone]	72.2 µg/mL (≈ 129 µM)	> 10 µM	4.49 µM	251 nM	2880 nM
C=CC(=O)N1CCC[C@@H](n2c(=O)cnc3cnc(Nc4ccc(N5CCN(C)CC5)cc4OC)nc32)C1 [Compound 22]	3230 µg/mL (≈ 6410 µM)	> 10 µM	> 10 µM	6900 nM	> 10000 nM
C=CC(=O)Nc1cc(Nc2ncc3nc(C(C)C)c(=O)n(C)c3n2)c(OC)cc1N(C)CCN(C)C [Compound 23]	1690 µg/mL (≈ 3410 µM)	3.2 µM	1.85 µM	939 nM	1730 nM
C=CC(=O)N1CC[C@H](n2c(=O)c(C(C)C)nc3cnc(Nc4ccc(N5CCN(C)CC5)c(C)c4)nc32)C1 [Compound 24, (S)-8-(1-acryloyl-3-pyrrolidinyl)-6-isopropyl-2-((3-methyl-4-(4-methyl-1-piperazinyl)phenyl)amino)-7(8H)-pteridinone]	2920 µg/mL (≈ 5650 µM)	3.1 µM	2.49 µM	576 nM	700 nM
C=CC(=O)N1CC[C@H](n2c(=O)c(-c3ccccc3)nc3cnc(Nc4ccc(N5CCN(C)CC5)c(C)c4)nc32)C1 [Compound 25, (S)-8-(1-acryloyl-3-pyrrolidinyl)-2-((3-methyl-4-(4-methyl-1-piperazinyl)phenyl)amino)-6-phenyl-7(8H)-pteridinone]	56.7 µg/mL (≈ 103 µM)	1.75 µM	0.016 µM	1.5 nM	65.2 nM
C=CC(=O)N1CC[C@H](n2c(=O)c(C(C)C)nc3cnc(Nc4ccc(N5CCN(C)CC5)cc4OC)nc32)C1 [Compound 26, (S)-8-(1-acryloyl-3-pyrrolidinyl)-6-isopropyl-2-((2-methoxy-4-(4-methyl-1-piperazinyl)phenyl)amino)-7(8H)-pteridinone]	10500 µg/mL (≈ 19700 µM)	9.5 µM	3.23 µM	559 nM	1300 nM
C=CC(=O)N1CC[C@H](n2c(=O)c(-c3ccccc3)nc3cnc(Nc4ccc(N5CCN(C)CC5)cc4OC)nc32)C1 [Compound 27, (S)-8-(1-acryloyl-3-pyrrolidinyl)-2-((2-methoxy-4-(4-methyl-1-piperazinyl)phenyl)amino)-6-phenyl-7(8H)-pteridinone]	264 µg/mL (≈ 465 µM)	1.85 µM	0.116 µM	3.8 nM	53.7 nM
COc1cc(N2CCN(C)CC2)ccc1Nc1ncc2nc(C(C)C)c(=O)n([C@H]3CCN(C(=O)/C=C/CN(C)C)C3)c2n1 [Compound 28]	3970 µg/mL (≈ 6730 µM)	> 10 µM	8.38 µM	> 10000 nM	> 10000 nM
Cc1cc(Nc2ncc3nc(-c4ccccc4)c(=O)n([C@H]4CCN(C(=O)/C=C/CN(C)C)C4)c3n2)ccc1N1CCN(C)CC1 [Compound 29, (S,E)-8-(1-(4-(dimethylamino)-2-butenoyl)-3-pyrrolidinyl)-2-((3-methyl-4-(4-methyl-1-piperazinyl)phenyl)amino)-6-phenyl-7(8H)-pteridinone]	438 µg/mL (≈ 720 µM)	1.6 µM	3.09 µM	791 nM	177 nM
